Results published in patent US20120029045A1, “METHOD FOR TREATING PORT WINE STAINS” (SHANGHAI FUDAN-ZHANGJIANG BIO-PHARMACEUTICAL CO., LTD., priority 2010, published 2012).

System: port wine stain lesion
Test: PDT for PWS, therapeutic effect assessment
Format: in vivo, human
Experimental: The effectiveness of PWS treatment with […] is categorized as being Excellent (I), Good (II), Effective (III) or Ineffective (IV). […] [table] A solution of 1 ml saline was injected in the superficial vein (e.g. median cubital vein) of patients to ensure no liquid leaked into tissues adjacent to the blood vessels into which the injection was made. At the same site, HMME was injected intravenously for 20 minutes with a constant flow rate by using an infusion pump. The doses applied were 2.5 mg/kg body weight or 5.0 mg/kg body weight. Next, 2-4 ml of saline solution was again injected to prevent the drugs from aggregating locally. Irradiation with KTP532 laser was then applied to the patient's lesion site 0-10 minutes after the start of injection, for a total duration of irradiation of either 20 minutes (denoted as the 20 min group), or 30 minutes (denoted as the 30 minute group). […] When irradiation was started immediately after the start of injection, the overlap between the injection and irradiation was about 20 minutes, when irradiation started 5 minutes after the start of injection, the overlap between drug injection and light irradiation was approximately 15 minutes, and when irradiation was started 10 minutes after the start of injection, the overlap was about 10 minutes. The therapeutic results were measured 8 weeks after the treatment. A dose of 5.0 mg/kg body weight of the poryphin based drug was injected, total irradiation durations were 20 min and 30 min respectively, and the effects and adverse effects were assessed. In this example doses of 2.5 and 5.0 mg/kg body weight respectively, were applied, the patient was irradiated for 20 min, and the therapeutic effects and the adverse effects were assessed.

[1] = 5.0 mg/kg, irradiation 20 min, 8 weeks after treatment
[2] = 5.0 mg/kg, irradiation 30 min, 8 weeks after treatment
[3] = Part B, 2.5 mg/kg group, irradiated 20 min, 8 weeks after treatment
[4] = Part B, 2.5 mg/kg group, irradiated 20 min, 8 weeks after treatment, 2.5 mg/kg
[5] = Part B, 5.0 mg/kg group, irradiated 20 min, 8 weeks after treatment
[6] = Part B, Purple type PWS, 2.5 mg/kg group, irradiated 20 min
[7] = Part B, Purple type PWS, 5.0 mg/kg group, irradiated 20 min
[8] = Part B, Red type PWS, 2.5 mg/kg group, irradiated 20 min
[9] = Part B, Red type PWS, 5.0 mg/kg group, irradiated 20 min
[10] = Part B, Thickening type PWS, 2.5 mg/kg group, irradiated 20 min
[11] = Part B, Thickening type PWS, 5.0 mg/kg group, irradiated 20 min
[12] = Purple type PWS, 5.0 mg/kg, irradiation 20 min
[13] = Purple type PWS, 5.0 mg/kg, irradiation 30 min
[14] = Red type PWS, 5.0 mg/kg, irradiation 20 min
[15] = Red type PWS, 5.0 mg/kg, irradiation 30 min
[16] = Thickening type PWS, 5.0 mg/kg, irradiation 20 min
[17] = Thickening type PWS, 5.0 mg/kg, irradiation 30 min

In the case of hematoporphyrin monomethyl ether [HMME], the “Excellent (cases)” value [1] was 2, the Excellent rate % [1] was 10.0% and the “Good (cases)” value [1] was 9. For the same substance, the “Ineffective (cases)” value [1] was 4, the “Moderate (cases)” value [1] was 5 and the Response rate % [1] was 80.0%. The “Significant response rate %” value [1] was 55.0%, the “Excellent (cases)” value [2] was 7 and the Excellent rate % [2] was 36.8%. The “Good (cases)” value [2] was 8, the “Ineffective (cases)” value [2] was 1 and the “Moderate (cases)” value [2] was 3. The Response rate % [2] was 94.7%, the “Significant response rate %” value [2] was 78.9% and the “Excellent (cases)” value [3] was 0. For the same substance, the “Good (cases)” value [3] was 1, the “Ineffective (cases)” value [3] was 24 and the “Moderate (cases)” value [3] was 15. The “Significant response rate %” value [3] was 2.5%, the Excellent rate % [4] was 0% and the Response rate % [4] was 40%. The “Excellent (cases)” value [5] was 2, the Excellent rate % [5] was 5.0% and the “Good (cases)” value [5] was 14. The “Ineffective (cases)” value [5] was 10, the “Moderate (cases)” value [5] was 14 and the Response rate % [5] was 75.0%. For the same substance, the “Significant response rate %” value [5] was 40.0%, the “Excellent (cases)” value [6] was 0 and the Excellent rate % [6] was 0.0%. For the same substance, the “Good (cases)” value [6] was 0, the “Ineffective (cases)” value [6] was 14 and the “Moderate (cases)” value [6] was 3. The Response rate % [6] was 17.6%, the “Significant response rate %” value [6] was 0.0% and the “Excellent (cases)” value [7] was 0. The Excellent rate % [7] was 0.0%, the “Good (cases)” value [7] was 7 and the “Ineffective (cases)” value [7] was 8. For the same substance, the “Moderate (cases)” value [7] was 9, the Response rate % [7] was 66.7% and the “Significant response rate %” value [7] was 29.2%. For the same substance, the “Excellent (cases)” value [8] was 0, the Excellent rate % [8] was 0.0% and the “Good (cases)” value [8] was 1. For the same substance, the “Ineffective (cases)” value [8] was 7, the “Moderate (cases)” value [8] was 8 and the Response rate % [8] was 56.3%. For the same substance, the “Significant response rate %” value [8] was 6.3%, the “Excellent (cases)” value [9] was 2 and the Excellent rate % [9] was 14.3%. For the same substance, the “Good (cases)” value [9] was 7, the “Ineffective (cases)” value [9] was 1 and the “Moderate (cases)” value [9] was 4. For the same substance, the Response rate % [9] was 92.9%, the “Significant response rate %” value [9] was 64.3% and the “Excellent (cases)” value [10] was 0. For the same substance, the Excellent rate % [10] was 0/7, the “Good (cases)” value [10] was 0 and the “Ineffective (cases)” value [10] was 3. The “Moderate (cases)” value [10] was 4, the Response rate % [10] was 4/7 and the “Significant response rate %” value [10] was 0/7. The “Excellent (cases)” value [11] was 0, the Excellent rate % [11] was 0/2 and the “Good (cases)” value [11] was 0. For the same substance, the “Ineffective (cases)” value [11] was 1, the “Moderate (cases)” value [11] was 1 and the Response rate % [11] was 1/2. For the same substance, the “Significant response rate %” value [11] was 0/2, the “Excellent (cases)” value [12] was 0 and the Excellent rate % [12] was 0/0. The “Good (cases)” value [12] was 2, the “Ineffective (cases)” value [12] was 1 and the “Moderate (cases)” value [12] was 3. The Response rate % [12] was 5/6, the “Significant response rate %” value [12] was 2/6 and the “Excellent (cases)” value [13] was 1. The Excellent rate % [13] was 1/8, the “Good (cases)” value [13] was 5 and the “Ineffective (cases)” value [13] was 0. The “Moderate (cases)” value [13] was 2, the Response rate % [13] was 8/8 and the “Significant response rate %” value [13] was 6/8. For the same substance, the “Excellent (cases)” value [14] was 2, the Excellent rate % [14] was 2/11 and the “Good (cases)” value [14] was 7. The “Ineffective (cases)” value [14] was 0, the “Moderate (cases)” value [14] was 2 and the Response rate % [14] was 11/11. The “Significant response rate %” value [14] was 9/11, the “Excellent (cases)” value [15] was 6 and the Excellent rate % [15] was 6/10. The “Good (cases)” value [15] was 2, the “Ineffective (cases)” value [15] was 1 and the “Moderate (cases)” value [15] was 1. For the same substance, the Response rate % [15] was 9/10, the “Significant response rate %” value [15] was 8/10 and the “Excellent (cases)” value [16] was 0. The Excellent rate % [16] was 0/0, the “Good (cases)” value [16] was 0 and the “Ineffective (cases)” value [16] was 3. The “Moderate (cases)” value [16] was 0, the Response rate % [16] was 0/0 and the “Significant response rate %” value [16] was 0/0. For the same substance, the “Excellent (cases)” value [17] was 0, the Excellent rate % [17] was 0/0 and the “Good (cases)” value [17] was 1. The “Ineffective (cases)” value [17] was 0, the “Moderate (cases)” value [17] was 0 and the Response rate % [17] was 1/1. For the same substance, the “Significant response rate %” value [17] was 1/1.
